The target in series [1] is T1, rat-derived α2,3-N-sialyltransferase (Rattus norvegicus, UniProt Q02734).
T1 construct: purchased Calbiochem
T1 sequence (Q02734 1-374): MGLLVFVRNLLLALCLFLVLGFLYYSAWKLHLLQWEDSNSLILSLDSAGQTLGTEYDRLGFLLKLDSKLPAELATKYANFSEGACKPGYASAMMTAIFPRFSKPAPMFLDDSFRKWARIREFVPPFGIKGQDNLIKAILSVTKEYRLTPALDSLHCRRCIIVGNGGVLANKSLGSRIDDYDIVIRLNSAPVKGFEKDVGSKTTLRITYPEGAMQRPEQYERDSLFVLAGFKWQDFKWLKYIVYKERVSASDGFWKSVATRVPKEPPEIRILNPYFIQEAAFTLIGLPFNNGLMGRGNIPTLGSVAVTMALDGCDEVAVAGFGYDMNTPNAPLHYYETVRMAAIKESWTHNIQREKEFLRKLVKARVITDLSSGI
Kind of series: Kinetic analysis of α2,3-sialyltransfer reaction to 4MU-4F-LacNAc. It counts as biochemical. Conditions: for Activity: α2,3-sialyltransferase. The protocol: (§1) The mixture was allowed to react at 25° C.
Precisely 60 minutes after initiation of the reaction, the reaction was terminated through addition of 80% acetonitrile (4 times in volume) and vigorous stirring. The reaction mixture was diluted, and the diluted product was analyzed through HPLC. […] Note that “1U” was defined as an enzyme amount which realizes sialylated sugar to form in an amount of 1 μmol/min under the above conditions.
The mixture was allowed to react at 25° C. for eight minutes.

Series [2] deals with T2, rat-derived α2,6-N-sialyltransferase (Rattus norvegicus, UniProt P13721).
T2 construct: purchased Calbiochem
T2 sequence (P13721 1-403): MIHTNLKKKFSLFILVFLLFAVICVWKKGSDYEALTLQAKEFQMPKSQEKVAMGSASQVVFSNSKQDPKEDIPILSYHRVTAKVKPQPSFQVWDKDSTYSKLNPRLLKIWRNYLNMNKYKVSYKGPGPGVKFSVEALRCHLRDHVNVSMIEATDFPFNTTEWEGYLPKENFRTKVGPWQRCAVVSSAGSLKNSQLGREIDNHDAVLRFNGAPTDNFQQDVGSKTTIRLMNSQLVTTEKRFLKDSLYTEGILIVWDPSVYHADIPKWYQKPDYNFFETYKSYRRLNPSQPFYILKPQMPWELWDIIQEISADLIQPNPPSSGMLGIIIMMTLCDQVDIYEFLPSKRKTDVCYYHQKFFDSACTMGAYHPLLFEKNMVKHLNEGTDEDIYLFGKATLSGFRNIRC
Kind of series: Kinetic analysis of α2,6-sialyltransfer reaction to 4MU-4F-LacNAc. As to conditions: for Activity: α2,6-sialyltransferase. It counts as biochemical. The protocol: as §1
Precisely 120 minutes after initiation of the reaction, the reaction was terminated through addition of 1M NaOH (⅕ times in volume). The reaction mixture was neutralized and diluted with an HPLC eluent, and the diluted product was analyzed through HPLC. […] Note that “1U” was defined as an enzyme amount which realizes formation of sialylated sugar in an amount of 1 μmol/min under the above conditions.
The mixture was allowed to react at 25° C. for 10 minutes.
The enzymatic activity values at respective concentrations are compared.

The target of series [3] is T2, rat-derived α2,6-N-sialyltransferase. In words: Enzymatic α2,6-sialyltransfer reaction to pyridylaminated (PA) 4F-galactosylchitobiose, HPLC percent conversion. It counts as biochemical. As to conditions: 10 μM acceptor, 100 μM CMP-NeuAc, 40 mU/mL enzyme, 25° C.; percent conversion compared with PA galactosylchitobiose. The protocol:
To a 10 mM HEPES-NaOH buffer (pH 7.5) containing 10 mM manganese chloride, 100 mM sodium chloride, 100 μM CMP-NeuAc, 0.02% (w/v) BSA, and 10 μM pyridylaminated (PA) 4F-galactosylated chitobiose, rat-derived α2,6-N-sialyltransferase (product of Calbiochem) (40 mU/mL-reaction mixture) was added, and the mixture was allowed to react at 25° C. In a similar manner, a similar mixture employing pyridylaminated (PA) galactosylated chitobiose as an acceptor was allowed to react as a control reaction.
An aliquot was sampled from the reaction mixture at hour 1, hour 2.5, hour 8, and hour 24 after initiation of the reaction. Finally, the reaction was terminated through addition of a mixture of 0.5M triethylamine-acetic acid (pH 7.3) and acetonitrile (25:75) (19 times in volume) and vigorous stirring. The product was analyzed through HPLC. […] Mass analysis detected an [M+H]^+ peak (m/z 659.74) attributed to compound 19, thereby confirming formation of compound 19. Also, in the control reaction employing UDP-Gal, an [M+H]^+ peak (m/z 657.74) attributed to compound 20 was detected through MALDI-TOF-MS, confirming formation of compound 20. […]

Series [4] concerns the target T1, rat-derived α2,3-N-sialyltransferase. In words: Enzymatic α2,3-sialyltransfer reaction to pyridylaminated (PA) 4F-galactosylchitobiose, HPLC percent conversion. As to conditions: 10 μM acceptor, 100 μM CMP-NeuAc, 100 mU/mL enzyme, 25° C.; percent conversion compared with PA galactosylchitobiose. The format is biochemical. The procedure: To a 10 mM HEPES-NaOH buffer (pH 7.5) containing 10 mM manganese chloride, 100 mM sodium chloride, 100 μM CMP-NeuAc, 0.02% (w/v) BSA, and 10 μM pyridylaminated (PA) 4F-galactosylated chitobiose, rat-derived α2,3-N-sialyltransferase (product of Calbiochem) (100 mU/mL-reaction mixture) was added, and the mixture was allowed to react at 25° C. In a similar manner, a similar mixture employing pyridylaminated (PA) galactosylated chitobiose as an acceptor was allowed to react as a control reaction.
An aliquot was sampled from the reaction mixture at hour 2.5 and hour 24 after initiation of the reaction. Finally, the reaction was terminated through addition of 10 mM sodium phosphate (pH 4.3) (9 times in volume) and vigorous stirring. The product was analyzed through HPLC employing a C30-UG-5 column. […] A fraction corresponding to each peak was collected and dried under reduced pressure. […] Mass analysis detected, in the reaction employing pyridylaminated (PA) 4F-galactosylchitobiose, an [M+H]^+ peak (m/z 959.45), thereby confirming formation of compound 17. Also, in the reaction employing pyridylaminated (PA) galactosyl chitobiose, an [M+H]^+ peak (m/z 957.31) was detected, thereby confirming formation of compound 18. […]

Substrate in series [5]: CC(=O)NC1C(O)[C@H](O[C@@H]2OC(CO)[C@H](O)[C@H](O)C2O)[C@H](CO)O[C@H]1Oc1ccc2c(C)cc(=O)oc2c1
In words: purified protein, by the assay type. Conditions: 25° C., pH 7.5.

Substrate in series [6]: CC(=O)NC1C(O)[C@H](O[C@@H]2OC(CO)[C@H](F)[C@H](O)C2O)[C@H](CO)O[C@H]1Oc1ccc2c(C)cc(=O)oc2c1
In words: purified protein, by the assay type. Conditions: other: 1/[S]-1/v plotting, 200 μM CMP-NeuAc, 25° C., pH 7.5.

Setting [7] is: other: rat-derived α2,6-sialyltransferase 40 mU/mL, 10 minutes, 1/[S]-1/v plotting.
[8] abbreviates: other: 1/[S]-1/v plotting, 200 μM CMP-NeuAc.

Turning to `CC(=O)NC1C(O)[C@H](O[C@@H]2OC(CO)[C@H](O)[C@H](O)C2O)[C@H](CO)O[C@H]1Oc1ccc2c(C)cc(=O)oc2c1` (stereo partly shown) [4MU-LacNAc, reference compound], the Activity worked out at 16.20 mU/mL in series [1] (acceptor concentration 20 μM); 28.50 mU/mL in series [1] (acceptor concentration 40 μM); 45.36 mU/mL in series [1] (acceptor concentration 80 μM); 66.23 mU/mL in series [1] (acceptor concentration 150 μM); 0.8800 mU/mL in series [2] (acceptor concentration 20 μM); 1.667 mU/mL in series [2] (acceptor concentration 40 μM). Besides, the Activity in series [2] (acceptor concentration 80 μM) is reported as 2.504 mU/mL; in series [2] (acceptor concentration 120 μM) it was 3.734 mU/mL; in series [2] (acceptor concentration 150 μM), 4.828 mU/mL.
As for `CC(=O)NC(CNc1ccccn1)[C@H](O)C(O[C@@H]1OC(CO)[C@@H](O[C@@H]2OC(CO)[C@H](F)[C@H](O)C2O)[C@H](O)C1NC(C)=O)C(O)CO` (stereo partly shown) [pyridylaminated (PA) 4F-galactosylchitobiose], in series [3], the “reactivity of α2,6-sialyltransferase” value is recorded as “considerably decrease”. The “reactivity of α2,3-sialyltransferase” value in series [4] is “considerably decrease”.
Turning to `CC(=O)NC1C(O)[C@H](O[C@@H]2OC(CO)[C@H](F)[C@H](O)C2O)[C@H](CO)O[C@H]1Oc1ccc2c(C)cc(=O)oc2c1` (stereo partly shown) [4MU-4F-LacNAc, 4-methylumbelliferyl 4F—N-acetyllactosamine], the “catalytic efficiency of α2,3-sialyltransferase relative to that with respect to 4MU-LacNAc” value in series [1] (compared with 4MU-LacNAc) is given as ≤ 6%. Moreover, the Activity in series [1] (acceptor concentration 20 μM) is 0.9972 mU/mL; in series [1] (acceptor concentration 40 μM) it was 1.756 mU/mL; in series [1] (acceptor concentration 80 μM), 3.214 mU/mL; in series [1] (acceptor concentration 150 μM), 4.541 mU/mL; in series [2] (acceptor concentration 20 μM) it was 0.07743 mU/mL; in series [2] (acceptor concentration 40 μM), 0.1561 mU/mL. Further, the Activity in series [2] (acceptor concentration 80 μM) was 0.3223 mU/mL; in series [2] (acceptor concentration 120 μM) it was 0.4596 mU/mL; in series [2] (acceptor concentration 150 μM), 0.6348 mU/mL. Also, in series [2] (compared with 4MU-LacNAc at respective concentrations), the “sialyltransferase activity of α2,6-sialyltransferase with respect to acceptor” value was “clearly decreased”.

B1: rat-derived α2,6-N-sialyltransferase (Rattus norvegicus) (protein)
chain: MIHTNLKKKFSLFILVFLLFAVICVWKKGSDYEALTLQAKEFQMPKSQEKVAMGSASQVVFSNSKQDPKEDIPILSYHRVTAKVKPQPSFQVWDKDSTYSKLNPRLLKIWRNYLNMNKYKVSYKGPGPGVKFSVEALRCHLRDHVNVSMIEATDFPFNTTEWEGYLPKENFRTKVGPWQRCAVVSSAGSLKNSQLGREIDNHDAVLRFNGAPTDNFQQDVGSKTTIRLMNSQLVTTEKRFLKDSLYTEGILIVWDPSVYHADIPKWYQKPDYNFFETYKSYRRLNPSQPFYILKPQMPWELWDIIQEISADLIQPNPPSSGMLGIIIMMTLCDQVDIYEFLPSKRKTDVCYYHQKFFDSACTMGAYHPLLFEKNMVKHLNEGTDEDIYLFGKATLSGFRNIRC
As to B1, in series [5] (setting [7]), the Km (as a rule, the substrate concentration at which the rate is half of its maximum) stood at 217 µM and the Vmax (usually the rate approached at saturating substrate) is on record as 65.24 nmol/min/mg.

B2: rat-derived α2,3-N-sialyltransferase (Rattus norvegicus) (protein)
chain: MGLLVFVRNLLLALCLFLVLGFLYYSAWKLHLLQWEDSNSLILSLDSAGQTLGTEYDRLGFLLKLDSKLPAELATKYANFSEGACKPGYASAMMTAIFPRFSKPAPMFLDDSFRKWARIREFVPPFGIKGQDNLIKAILSVTKEYRLTPALDSLHCRRCIIVGNGGVLANKSLGSRIDDYDIVIRLNSAPVKGFEKDVGSKTTLRITYPEGAMQRPEQYERDSLFVLAGFKWQDFKWLKYIVYKERVSASDGFWKSVATRVPKEPPEIRILNPYFIQEAAFTLIGLPFNNGLMGRGNIPTLGSVAVTMALDGCDEVAVAGFGYDMNTPNAPLHYYETVRMAAIKESWTHNIQREKEFLRKLVKARVITDLSSGI
On to B2, for which, in series [5] (setting [8]), the Km amounted to 129 µM and the maximum rate (Vmax) was 146.9 nmol/min/mg. For the same molecule, in series [6], the Michaelis-Menten constant (Km) came to 188 µM and the Vmax came out at 12.60 nmol/min/mg.

(Values after patent publication US8148112B2, “Sugar chain containing 4-position halogenated galactose and application thereof” (National University Corporation Hokkaido University, priority 2005, dated 2012).)
